The values that follow come from the supplement of paper PMC10307832.

Common to all, as to test: relative viability (nuclei count vs DMSO), 5 days (fraction); higher = more cells survive
Compound in the assay “PAC-1 + Olaparib”: C=CCc1cccc(/C=N/NC(=O)CN2CCN(Cc3ccccc3)CC2)c1O [PAC-1] + O=C(c1cc(Cc2n[nH]c(=O)c3ccccc23)ccc1F)N1CCN(C(=O)C2CC2)CC1 [Olaparib] (partner 8 µM)
A digest of the protocol: (§1)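 One day after seeding in 1536-well plates, lung cancer cell lines were dosed by pin tool. Dosing was either single-drug or a fixed anchor-drug dose plus five library-drug doses (not always all listed) in √10 steps. After 5 days, nuclei were stained in one fix-and-stain step and counted on 4× images, and relative viability is the nuclei count of treated wells over that of vehicle wells, given as the median of duplicate plates.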

Compound in the assay “Ibrutinib + Pemetrexed”: C=CC(=O)N1CCC[C@@H](n2nc(-c3ccc(Oc4ccccc4)cc3)c3c(N)ncnc32)C1 [Ibrutinib] + Nc1nc2[nH]cc(CCc3ccc(C(=O)N[C@@H](CCC(=O)O)C(=O)O)cc3)c2c(=O)[nH]1 [Pemetrexed] (partner 0.2 µM)
Summed up: as §1

Compound in the assay “BMX-IN-1 + Decitabine”: C=CC(=O)Nc1cc(-n2c(=O)ccc3cnc4ccc(-c5ccc(NS(C)(=O)=O)cc5)cc4c32)ccc1C [BMX-IN-1] + Nc1ncn([C@H]2C[C@H](O)[C@@H](CO)O2)c(=O)n1 [Decitabine] (partner 2 µM)
A digest of the protocol: as §1

Compound in the assay “PAC-1 + Alpelisib”: C=CCc1cccc(/C=N/NC(=O)CN2CCN(Cc3ccccc3)CC2)c1O [PAC-1] + Cc1nc(NC(=O)N2CCC[C@H]2C(N)=O)sc1-c1ccnc(C(C)(C)C(F)(F)F)c1 [Alpelisib] (partner 2 µM)
A digest of the protocol: as §1

As for SK-MES-1, the relative viability came to 0.717 with PAC-1 + Olaparib (first compound 0.02 µM); 0.711 with PAC-1 + Olaparib (first compound 0.06325 µM); 0.635 with PAC-1 + Olaparib (first compound 0.2 µM); 0.437 with PAC-1 + Olaparib (first compound 2 µM); 1.01 with Ibrutinib + Pemetrexed (first compound 0.005 µM); 0.951 with Ibrutinib + Pemetrexed (first compound 0.01581 µM). The relative viability amounted to 0.905 in the assay with Ibrutinib + Pemetrexed (first compound 0.05 µM); 1.14 in the assay with Ibrutinib + Pemetrexed (first compound 0.1581 µM); 0.752 with Ibrutinib + Pemetrexed (first compound 0.5 µM); 0.398 in the assay with BMX-IN-1 + Decitabine (first compound 0.02 µM); 0.432 with BMX-IN-1 + Decitabine (first compound 0.2 µM); 0.425 with BMX-IN-1 + Decitabine (first compound 0.6325 µM). Moreover, the relative viability came out at 0.637 with BMX-IN-1 + Decitabine (first compound 2 µM); 0.845 with PAC-1 + Alpelisib (first compound 0.02 µM); 0.908 with PAC-1 + Alpelisib (first compound 0.06325 µM); 0.878 in the assay with PAC-1 + Alpelisib (first compound 0.2 µM); 0.955 in the assay with PAC-1 + Alpelisib (first compound 2 µM).
